Earlier results in patent US6443892B1, “Sweat collecting device and methods for use and detection of tampering” (The United States of America as represented by the …, priority 2000, dated 2002).

What was measured:
[1] = basic media
[2] = hydrophilic dye; hydration of inner pad not reported

| Structure (SMILES) | earliest collection time with detectable concentrations after drugs placed on outside of membrane [1] | CFWO through membrane [2] |
| --- | --- | --- |
| CC(=O)Oc1ccc2c3c1O[C@H]1[C@@H](OC(C)=O)C=C[C@H]4[C@@H](C2)N(C)CC[C@@]341 [heroin] | approximately 30 seconds | – |
| CN[C@@H](C)Cc1ccccc1 [methamphetamine] | approximately 30 seconds | – |
| CCN(CC)c1ccc2c(-c3ccccc3C(=O)O)c3ccc(=[N+](CC)CC)cc-3oc2c1.[Cl-] [rhodamine B] | – | No CFWO was observed |
